According to ChEMBL document CHEMBL1122775, “NMR spectroscopic studies of intermediary metabolites of cyclophosphamide. A comprehensive kinetic analysis of the interconversion of cis- and trans-4-hydroxycyclophosphamide with aldophosphamide and the concomitant partitioning of aldophosphamide between irreversible fragmentation and reversible …” (J Med Chem, 1984):

Assay: pKa was determined
Format: physicochemical

Row | Structure (SMILES) | pKa
1 | CC(C)(C)N [TERT-BUTYLAMINE] | 10.8
2 | COc1ccc(N)cc1 | 5.3
